{"source": "patent US20090123389A1", "about": "“Methods for modulating Th17 cell development in the treatment and prevention of cellulite” (priority 2007, published 2009)", "key": {"dermal ECM deposition": {"system": "dermal ECM deposition", "details": "cited from earlier work"}, "CD4+ CD25− T cells": {"system": "CD4+ CD25− T cells", "assay": "Foxp3 (Treg marker) expression in TGFβ/IL-6 treated T cells", "format": "cell-based, mouse", "protocol": "Low doses of halofuginone (HF) were tested to determine the ability of HF to enhance Treg differentiation, while suppressing Th17 differentiation. Naïve CD4+ T cells (CD4+ CD25−) were isolated from the spleen and peripheral lymph nodes of C57B/6 mice. T cells were then activated using anti-CD3 (0.3 μg/ml) and anti-CD28 (0.5 μg/ml) antibodies either in media alone (row 1, 4), TGFβ alone (3 ng/ml—row 2, 5) or TGFβ (3 ng/ml) plus IL-6 (30 ng/ml) (row 3, 6). […] T cells were cultured for 3 days and CD25 and Foxp3 expression (Treg marker genes) was determine by FACS staining and flow cytometric analyses. Simultaneously, T cells were harvested and re-stimulated for 4 hours using phorbol myristic acetate (PMA; 10 nM), Ionomycin (1 μM) and cytokine secretion was prevented using brefeldin A (20 μg/ml). Following stimulation, the production of IL-17 and IFNγ were determined by intracellular staining and analyzed via flow cytometry. […]\nFACS analyses and sorting: All cell surface staining was performed in FACS buffer (PBS/2% FCS/0.1% NaN3) and antibodies were incubated with cells on ice for 20-30 minutes. […] All FACS data was acquired on a FACSCalibur flow cytometer (BD Pharmingen) and analyzed using FlowJo software (Treestar, Inc., Ashland, Oreg.). […]"}, "TGFβ signaling": {"system": "TGFβ signaling", "assay": "TGFβ signaling in T and B cells (Smad phosphorylation, lymphocyte responses to TGFβ)", "format": "cell-based, mouse", "details": "HF 10 nM (2.5-40 nM for Smad); SB-431542 10 μM", "protocol": "DMSO, 10 nM HF, 10 nM MAZ1310 or 10 μM SB-431542 was added as indicated at the time of activation and intracellular cytokine staining was performed on expanded T cells on day 5 as in FIG. 14B\nFIG. 15B is an illustration depicting the analysis of CD8^+ T cells that were activated in the presence or absence of TGFβ and cultured with DMSO, 10 nM HF, 10 nM MAZ1310 or 10 μM SB-431542. Expanded cells were restimulated on day 5 and intracellular staining was performed as above.\nFIG. 15C is an illustration depicting the analysis of CFSE-labeled B cells that were activated by LPS stimulation in the presence or absence of TGFβ plus DMSO, 10 nM HF, 10 nM MAZ1310 or 10 μM SB-431542. Intracellular IL-6 production in B cells re-stimulated with PMA plus ionomycin, or cell-surface IgA expression was determined 4 days after activation by FACS analyses.\nT cells were then activated in the presence or absence of 3 ng/ml TGFβ. Whole cell extracts were prepared after 1 hour of stimulation and western blot analyses were performed using the indicated antibodies.\nWestern blotting: Whole cell lysates were generated from T cells activated for the indicated times. For STAT3 and Smad2/3 western blots cells were harvested, washed in PBS and lysed in 50 mM Tris, pH 7.4, 0.1% SDS, 1% Triton-×100, 140 mM NaCl, 1 mM EDTA, 1 mM EGTA supplemented with protease inhibitors tablets (Roche—Germany), 1 mM NaF and 1 mM Na3VO4. […]"}, "primary T cells": {"system": "primary T cells", "format": "cell-based", "protocol": "The non-specific cytoxicity of HF in both normal and transformed T-cells at high doses was evaluated. Anti-CD3/anti-CD28 activated primary T cells were harvested 6 days after activation and cultured in the presence of IL-2 with or without HF (100 nM). As a positive control, some T cells were cultured without IL-2 to induce apoptosis (FIG. 3A). Jurkat T cells, a transformed T cell leukemia line, were cultured in complete medium with or without HF (100 nM) as indicated (FIG. 3B). Both primary and Jurkat T cells were cultured for 30 hours and programmed cell death, i.e. apoptosis, was determined by Annexin V staining and propidium iodide (PI) uptake and cells were analyzed by flow cytometry. The percent of apoptotic T cells at each time point was plotted and was defined as Annexin V^+ PI^−. […] In further experiments, titrating amounts of HF were added to primary T cells and apoptosis was determine as above at the indicated time points. At 100 nM HF, but not 30 nM or lower, generalized T-cell apoptosis was observed (FIG. 3C)."}}, "note": "“And” between values parts separate entries of the source, which are not always exact repeats. Identical values can stand only once."}
{"smiles": "O=C(CC1NCCCC1O)Cn1cnc2cc(Br)c(Cl)cc2c1=O", "note": "(racemic) [HF, 7-bromo-6-chloro-3-[3-(3-hydroxy-2-piperidinyl)-2-oxopropyl]-4(3H)-quinazolinone]", "values": [{"measurement": "excess dermal ECM deposition", "setting": "dermal ECM deposition; intra-peritoneally, added to food, or applied locally", "value": "reduces excess dermal ECM deposition"}, {"measurement": "wound healing", "setting": "dermal ECM deposition; topical HF, animal models", "value": "facilitate wound healing"}, {"measurement": "Foxp3 expression of T cells differentiated in the presence of HF", "setting": "CD4+ CD25− T cells; 10 nM HF, TGFβ plus IL-6, day 3", "value": "enhanced Foxp3 expression"}, {"measurement": "HF concentration that increased expression of the Treg marker FoxP3", "setting": "CD4+ CD25− T cells; TGFβ/IL-6 treated T-cells, 3 days", "value": "2.5 to 10 nM and 2.2 to 10 nM"}, {"measurement": "TGFβ-induced Smad phosphorylation and other lymphocyte responses to TGFβ", "setting": "TGFβ signaling", "value": "inhibited neither"}, {"measurement": "HF concentration at which generalized T-cell apoptosis was not observed", "setting": "primary T cells", "value": "≤ 30", "unit": "nM"}, {"measurement": "HF concentration at which generalized T-cell apoptosis was observed", "setting": "primary T cells", "value": 100, "unit": "nM"}]}
